From patent publication US20240319207A1, “METHOD FOR IDENTIFYING T-CELL EPITOPE SEQUENCE, AND APPLICATION OF SAME” (priority 2021, published 2024)

Key:
[1] = test system: human peripheral blood monocyte cells, first type (HLA-DRB1*07:01, 15:02); assay: ELISPOT assay for interleukin-4, cell 1; assay type: cell-based; conditions: 4×10^5 cells per well, peptide 10 μg/ml, 48 hours, after 13 days culture with peptide 1 μg/ml and IL-2
Protocol: (§1) There was performed an assay for specifying a peptide that could actually be an antigen from the peptide candidate list obtained up to Example 8. In this example, it was confirmed whether the sequence of the peptide obtained as described above could function as a T cell epitope. Of the 12 highly versatile epitope candidates obtained above, 8 epitope candidates were subjected to an assay using peptides.
(§2) Human peripheral blood monocyte cells carrying HLA types and showing high binding affinity with 8 peptide sequences in Example 8 were used. Specifically, human peripheral blood monocyte cells carrying the following 2 types of HLA types were purchased from Lonza K.K. (Tokyo, Japan) and used. The HLA types of the first type of human peripheral blood monocyte cells used were HLA-DPA1*01:03, 02:02, HLA-DPB1*04:01, 05:01, HLA-DQA1*01:02, 02:01, HLA-DQB1*03:03, 05:02, and HLA-DRB1*07:01, 15:02. The HLA types of the second type of human peripheral blood monocyte cells were HLA-DPA1*01:03, HLA-DPB1*04:01, 04:02, HLA-DOA1*01:03, 05:05, HLA-DOB1*03:01, 06:03, and HLA-DRB1*13:01,14:06.
(§3) Cells were cultured in the following manner. […]
(§4) ELISPOT assays for interferon-γ and interleukin-4 were conducted. […] The number of spots of the color-developed plate was measured by a contract analysis service of M&S TechnoSystems, Inc. (Osaka, Japan).

[2] = test system: human peripheral blood monocyte cells, second type (HLA-DRB1*13:01, 14:06); assay: ELISPOT assay for interleukin-4, cell 2; assay type: cell-based; conditions: 4×10^5 cells per well, peptide 10 μg/ml, 48 hours, after 13 days culture with peptide 1 μg/ml and IL-2
Protocol: as §1, §2, §3, §4

T cells = conditions: peptide sequence including the TREM sequence (from TCRβ repertoire, Table 12 no) activates T cells to induce interferon-γ; cited from earlier work

| Substance | ELISPOT IL-4 cell 1 (number of spots) [1] | ELISPOT IL-4 cell 2 (number of spots) [2] | IFN-g release (T cells) |
| --- | --- | --- | --- |
| 7 (QDEKGVTQNGRLITA; listed as Homo sapiens) [compound 7] | 6 | 12 | – |
| 15 (LITMDWTWRFLFVVA; listed as Homo sapiens) [compound 15] | – | – | Positive |
